Measured values published in publication PMC12365235, “Molecular mechanisms of thiazide-like diuretics-mediated inhibition of the human Na-Cl cotransporter” (Nature Communications, 2025).

What was measured:
[1] = biological target: T1, NCCcryo (Homo sapiens, UniProt P55017, E240A); assay: 125I- uptake assay, NCCcryo construct; assay type: cell-based; details: thiazide-sensitive iodide uptake; hNCC with DrNKCC1 NTD and E240A
T1 sequence (P55017 132-1021 E240A): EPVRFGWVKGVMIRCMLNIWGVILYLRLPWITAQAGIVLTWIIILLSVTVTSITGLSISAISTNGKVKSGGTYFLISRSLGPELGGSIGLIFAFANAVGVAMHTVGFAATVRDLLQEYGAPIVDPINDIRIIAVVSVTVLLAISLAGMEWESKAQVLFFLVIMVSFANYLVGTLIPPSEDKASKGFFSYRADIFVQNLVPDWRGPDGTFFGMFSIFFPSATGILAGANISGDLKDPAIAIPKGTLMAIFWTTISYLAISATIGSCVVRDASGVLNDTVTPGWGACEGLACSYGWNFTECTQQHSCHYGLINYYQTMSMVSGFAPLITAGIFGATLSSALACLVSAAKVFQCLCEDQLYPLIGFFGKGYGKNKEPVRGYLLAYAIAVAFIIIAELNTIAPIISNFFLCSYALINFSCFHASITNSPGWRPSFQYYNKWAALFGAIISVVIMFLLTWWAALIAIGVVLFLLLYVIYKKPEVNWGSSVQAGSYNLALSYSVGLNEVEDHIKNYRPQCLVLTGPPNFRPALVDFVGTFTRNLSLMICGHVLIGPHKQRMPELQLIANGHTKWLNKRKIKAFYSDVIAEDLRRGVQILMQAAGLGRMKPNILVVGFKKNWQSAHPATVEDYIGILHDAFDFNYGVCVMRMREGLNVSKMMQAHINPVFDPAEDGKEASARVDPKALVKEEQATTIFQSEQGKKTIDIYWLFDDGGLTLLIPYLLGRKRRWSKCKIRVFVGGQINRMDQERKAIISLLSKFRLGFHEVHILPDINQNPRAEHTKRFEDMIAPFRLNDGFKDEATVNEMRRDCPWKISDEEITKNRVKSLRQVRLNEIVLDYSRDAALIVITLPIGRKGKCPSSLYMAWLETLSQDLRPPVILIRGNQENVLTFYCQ
T1 sequence (A0A0G2KTI4 1-202 E76K partner): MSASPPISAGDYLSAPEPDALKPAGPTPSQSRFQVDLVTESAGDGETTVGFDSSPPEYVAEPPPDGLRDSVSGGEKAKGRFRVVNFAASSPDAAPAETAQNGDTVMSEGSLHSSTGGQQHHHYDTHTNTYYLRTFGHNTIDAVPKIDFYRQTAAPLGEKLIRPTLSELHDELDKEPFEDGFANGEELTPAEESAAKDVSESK
Experimental: The NCCcryo construct consists of human NCC with its NTD (first 131 residues) replaced by that of zebrafish NKCC1 (first 202 residues), along with an E240A mutation and a Strep-tag II[69] at the N-terminus. The codon-optimized NCCcryo was cloned into a modified BacMam vector[70], which was then used for generating baculoviruses. HEK293S cells (3.0–3.5 × 10^6 cells per mL) were infected with the baculoviruses for NCCcryo, with sodium butyrate (10 mM) added 12–15 h afterwards, and the incubation temperature reduced to 30 °C. Two days after the addition of sodium butyrate, HEK293S cells were harvested.
(§1) HEK293S cell lines, cultured in 293 Freestyle medium (Life Technologies; plus 10% fetal bovine serum), stably expressing hNCC and its variants were generated following published protocols. Cells were transfected using Lipofectamine 3000 (Invitrogen) with a pSBbi-RP-based plasmid containing hNCC or its variants and the SB100X vector. Puromycin (2 μg/mL; Gemini Bio-Products) was used for selection of stable cell lines.
To prepare for the uptake experiment, cells were plated at 0.5 × 10^6 cells/well in 24-well plates one day in advance. […] Cells lysed using 1% sodium dodecyl sulfate (SDS) were analyzed by scintillation counting. […]

[2] = tested on: hNCC(V229M); assay: 125I- uptake assay, hNCC(V229M) variant; assay type: cell-based, human; details: V229M polymorphism
Experimental: as §1
To prepare for the uptake experiment, cells were plated at 0.5 × 10^6 cells/well in 24-well plates one day in advance. To activate NCC, cells were treated with a chloride-free hypotonic solution composed of 67.5 mM sodium-, 2.5 mM potassium-, 0.25 mM magnesium-, and 0.25 mM calcium-gluconate, as well as 7.5 mM HEPES pH 7.4 (buffered using Tris) at 37 °C for 10 min[72]. After the activation step, the experiments were carried out at room temperature. Ten minutes before the start of ^125I^− uptake, 70 μM Bumetanide (Thermo Scientific Chemicals) and 100 μM 4,4′-diisothiocyanatostilbene-2,2′-disulfonic acid (DIDS; Sigma) were added to suppress background iodide uptake activity. Indicated thiazide diuretics were also added to the indicated concentrations 10 min before the start of ^125I^− uptake. […] Cells lysed using 1% sodium dodecyl sulfate (SDS) were analyzed by scintillation counting. […]

SMILES | IC50 [1] [nM] | fold reduction of sensitivity relative to hNCC(WT) [2]
NS(=O)(=O)c1cc(C2(O)NC(=O)c3ccccc32)ccc1Cl (stereo not drawn) [chlorthalidone] | 20 | 
CN1C(CSCC(F)(F)F)Nc2cc(Cl)c(S(N)(=O)=O)cc2S1(=O)=O (stereo not drawn) [polythiazide] |  | ~ 5 fold
CC1Cc2ccccc2N1NC(=O)c1ccc(Cl)c(S(N)(=O)=O)c1 (stereo not drawn) [indapamide] | 9.1 | 
